According to patent EP4748837A1, “AROMATIC AMIDE DERIVATIVE, AND PREPARATION METHOD THEREFOR AND USE THEREOF” (Zhejiang Hisun Pharmaceutical Co., Ltd., priority 2023, dated 2025):

Key:
OVCAR-3 cells = test: Inhibition of OVCAR-3 cell proliferation (CellTiter-Glo cell viability); assay type: cell-based; conditions: Homo sapiens; OVCAR-3 cells (TP53 R248Q mutation), 72 hours culture with compound; read-out: IC50
Method: (§1) Influences of the compounds of the present invention on OVCAR-3 cell proliferation were determined by the following method. OVCAR-3 cells (containing TP53 R248Q mutation) were purchased from the Cell Bank of Shanghai Institute of Biochemistry and Cell Biology, Chinese Academy of Sciences, and cultured in an RPMI 1640 culture medium containing 10% fetal bovine serum, 100 U penicillin and 100 µg/mL streptomycin. A cell viability was determined by a CellTiter-Glo® Luminescent Cell Viability Assay kit (Promega, article number G7573).
(§2) An experimental method was operated according to steps in the instruction of the kit, which was briefly described as follows: a test compound was dissolved in DMSO first to prepare a 10 mM stock solution, then the stock solution was diluted with the culture medium to prepare a test sample, and a final concentration of the compound was in a range of 1000 nM-0.015 nM. Cells in a logarithmic growth phase were inoculated into a 96-well cell culture plate at a density of 1000 cells per well, cultured in a 5% CO2 incubator at 37°C overnight, and then the test compound was added to continuously culture for 72 hours. After the culture was ended, 50 uL of CellTiter-Glo detection solution was added to each well , shaken for 5 minutes, and then allowed to stand for 10 minutes, and subsequently, a luminance value of each well of the sample was read by a microplate reader in a Luminescence mode. By comparing with the numerical value of a control group (0.3% DMSO), a percentage inhibition rate of the compound at each concentration point was calculated, and then nonlinear regression analysis was carried out based on concentration logarithm-inhibition rate of the compound in GraphPad Prism 5 software, so as to obtain an IC50 value of the compound for inhibiting the cell proliferation, which was as shown in Table 1. Table 1 IC50 data of the compounds of the present invention for inhibiting OVCAR-3 cell proliferation

recombinant human KIF18A = target: T1, recombinant human KIF18A (Homo sapiens, UniProt Q8NI77); test: Inhibition of KIF18A enzyme activity (ADP-Glo assay); assay type: biochemical; conditions: recombinant human KIF18A 100 nM, ATP 60 µM, tubulin, paclitaxel; read-out: IC50
T1 construct: purchased GenScript
Method: Inhibition degrees of the compounds of the present invention on recombinant human KIF18A enzyme activity in vitro were determined by the following method. An ADP-Glo™ Kinase Assay kit (article number V9102) from Promega Company was used in this method. Detailed experimental operation referred to the instruction of the kit.
An experimental process was briefly described as follows: a test compound was dissolved in DMSO first to prepare a stock solution, then the stock solution was gradiently diluted with a reaction buffer A ([…], 0.01% Pluronic F-68), and a final concentration of the test compound in the reaction system was in a range of 10000 nM-0.15 nM; and a KIF18A protein and ATP working solution was prepared by using a reaction buffer B (15 mM Tris, pH 7.5, 10 mM MgCl2, 0.01% Pluronic F-68, 37.5 µg/ml tubulin, 1.25 µM paclitaxel). The reaction was carried out in a 384-well microplate. The test compound and the recombinant human KIF18A protein (final concentration of 100 nM, entrusted to GenScript for expression) were added into the wells and incubated at room temperature for 20 minutes, and subsequently, an ATP solution (component V915A from the ADP-Glo™ Kinase Assay kit, final concentration of 60 µM) was added to the reaction solution and the system was incubated at room temperature for 20 minutes. Subsequently, 5 µL of ADP-Glo Reagent was added to the reaction systemand the system was incubated at room temperature for 50 minutes. Then, 10 µL of Kinase Detection Reagent was added to the reaction system and the system was incubated at room temperature for 30 minutes. After the incubation was ended, a chemiluminiscence intensity value of each well was determined by a microplate reader in a Luminescence mode.

HT-29 cells = test: Inhibition of HT-29 cell proliferation (CellTiter-Glo cell viability); assay type: cell-based; conditions: Homo sapiens; HT-29 cells (TP53 R273H mutation), 120 hours culture with compound; read-out: IC50
Method: as §1, with “HT-29” for “OVCAR-3”, “R273H” for “R248Q”, “a McCOY's 5A” for “an RPMI 1640”
as §2, with “for 120” for “for 72”, “each well,” for “each well ,”, “Table 2.” for “Table 1.”, “Table 2” for “Table 1”, “inhibiting HT-29” for “inhibiting OVCAR-3”

T1 sequence (Q8NI77 whole entry): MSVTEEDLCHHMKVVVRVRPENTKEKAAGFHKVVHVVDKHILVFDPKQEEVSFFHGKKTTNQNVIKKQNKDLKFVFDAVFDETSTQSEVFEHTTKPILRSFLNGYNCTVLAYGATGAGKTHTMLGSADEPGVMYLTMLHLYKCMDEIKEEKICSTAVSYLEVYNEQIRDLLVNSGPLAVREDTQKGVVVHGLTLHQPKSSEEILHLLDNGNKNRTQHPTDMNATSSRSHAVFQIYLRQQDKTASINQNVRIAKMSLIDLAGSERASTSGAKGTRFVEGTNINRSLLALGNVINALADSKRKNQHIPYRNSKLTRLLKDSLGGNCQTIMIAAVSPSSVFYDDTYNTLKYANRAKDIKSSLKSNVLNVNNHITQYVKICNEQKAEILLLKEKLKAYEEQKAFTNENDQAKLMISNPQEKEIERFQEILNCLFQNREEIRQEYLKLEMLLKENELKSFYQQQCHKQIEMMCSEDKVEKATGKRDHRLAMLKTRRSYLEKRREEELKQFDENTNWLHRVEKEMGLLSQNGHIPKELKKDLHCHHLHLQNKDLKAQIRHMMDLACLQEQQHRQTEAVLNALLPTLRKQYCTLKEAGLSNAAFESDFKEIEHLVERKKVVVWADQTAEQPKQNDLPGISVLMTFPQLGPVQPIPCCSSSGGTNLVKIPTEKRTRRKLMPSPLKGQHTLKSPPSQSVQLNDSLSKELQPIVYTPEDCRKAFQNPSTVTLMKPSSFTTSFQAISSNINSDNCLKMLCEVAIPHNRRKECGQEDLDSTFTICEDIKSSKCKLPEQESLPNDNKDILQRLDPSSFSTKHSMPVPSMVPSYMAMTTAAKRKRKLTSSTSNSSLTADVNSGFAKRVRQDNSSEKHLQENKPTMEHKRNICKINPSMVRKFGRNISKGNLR
T1 sequence (P68363 whole entry partner): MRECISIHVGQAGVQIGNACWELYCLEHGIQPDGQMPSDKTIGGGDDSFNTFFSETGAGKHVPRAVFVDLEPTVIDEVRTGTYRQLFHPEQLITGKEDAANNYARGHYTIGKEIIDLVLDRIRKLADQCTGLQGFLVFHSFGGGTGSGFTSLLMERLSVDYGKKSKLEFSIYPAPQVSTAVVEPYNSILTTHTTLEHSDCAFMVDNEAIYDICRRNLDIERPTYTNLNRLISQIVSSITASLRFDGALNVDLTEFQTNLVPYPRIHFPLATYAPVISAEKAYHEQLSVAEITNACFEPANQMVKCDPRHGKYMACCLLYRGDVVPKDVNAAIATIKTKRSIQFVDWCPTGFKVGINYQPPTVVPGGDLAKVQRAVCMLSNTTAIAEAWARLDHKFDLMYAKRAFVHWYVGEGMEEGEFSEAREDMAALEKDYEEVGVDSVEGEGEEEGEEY
T1 sequence (Q9BVA1 whole entry partner): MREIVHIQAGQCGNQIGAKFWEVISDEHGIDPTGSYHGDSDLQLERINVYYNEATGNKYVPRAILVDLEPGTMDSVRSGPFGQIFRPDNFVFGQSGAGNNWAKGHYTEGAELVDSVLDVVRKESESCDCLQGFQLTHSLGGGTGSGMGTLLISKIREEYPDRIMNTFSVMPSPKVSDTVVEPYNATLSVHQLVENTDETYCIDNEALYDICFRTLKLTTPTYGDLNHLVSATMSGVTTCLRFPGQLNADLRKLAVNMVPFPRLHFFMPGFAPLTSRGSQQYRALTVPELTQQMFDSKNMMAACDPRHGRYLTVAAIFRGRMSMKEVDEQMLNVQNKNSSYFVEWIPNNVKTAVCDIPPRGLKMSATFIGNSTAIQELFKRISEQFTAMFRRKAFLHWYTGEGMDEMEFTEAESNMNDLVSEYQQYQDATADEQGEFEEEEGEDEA

| SMILES | IC50 (OVCAR-3 cells) | IC50 (recombinant human KIF18A) | IC50 (HT-29 cells) |
| --- | --- | --- | --- |
| CCS(=O)(=O)Nc1ccc(C(=O)Nc2ccc(-c3ccnnc3)c(N3CCC(F)(F)CC3)c2)c(N2CCC3(CC2)CC3)c1 [Example 13, N-(3-(4,4-difluoropiperidin-1-yl)-4-(pyridazin-4-yl)phenyl)-4-(ethylsulfonamido)-2-(6-azaspiro[2.5]octan-6-yl)benzamide] | 5.9 nM | 82.9 nM | 11.5 nM |
| CCS(=O)(=O)Nc1ccc(C(=O)Nc2ccc(-c3cccnn3)c(N3CCC(F)(F)CC3)c2)c(N2CCC3(CC2)CC3)c1 [Example 12, N-(3-(4,4-difluoropiperidin-1-yl)-4-(pyridazin-3-yl)phenyl)-4-(ethylsulfonamido)-2-(6-azaspiro[2.5]octan-6-yl)benzamide] | 2.5 nM | 62.4 nM | 3.9 nM |
| CCS(=O)(=O)Nc1ccc(C(=O)Nc2ccc(-n3cnnn3)c(N3CCC(F)(F)CC3)c2)c(N2CCC3(CC2)CC3)c1 [Example 29, N-(3-(4,4-difluoropiperidin-1-yl)-4-(1H-tetrazol-1-yl)phenyl)-4-(ethylsulfonamido)-2-(6-azaspiro[2.5]octan-6-yl)benzamide] | 15.9 nM | 79.5 nM | 18.4 nM |
| CCS(=O)(=O)Nc1ccc(C(=O)Nc2ccc(-c3nnc[nH]3)c(N3CCC(F)(F)CC3)c2)c(N2CCC3(CC2)CC3)c1 [Example 37, N-(3-(4,4-difluoropiperidin-1-yl)-4-(4H-1,2,4-triazol-3-yl)phenyl)-4-(ethylsulfonamido)-2-(6-azaspiro[2.5]octan-6-yl)benz amide] | 3.6 nM | 39.8 nM | 3.8 nM |
| [2H]C([2H])([2H])Oc1ccc(NC(=O)c2ccc(NS(=O)(=O)CCO)cc2N2CCC3(CC2)CC3)cc1N1CCC(F)(F)CC1 [Example 58, N-(3-(4,4-difluoropiperidin-1-yl)-4-(methoxy-d3)phenyl)-4-( (2-hydroxyethyl)sulfonamido) -2-(6-azaspiro[2.5]octan-6-yl) benzamide] | 2.2 nM | 91.7 nM | 1.5 nM |
| CCS(=O)(=O)Nc1ccc(C(=O)Nc2ccc(-n3ccnn3)c(C3CCC(F)(F)CC3)c2)c(N2CCC3(CC2)CC3)c1 [Example 31, N-(3-(4,4-difluorocyclohexyl)-4-(1H-1,2,3-triazol-1-yl)pheny 1)-4-(ethylsulfonamido)-2-(6-azaspiro[2.5]octan-6-yl)benzamide] | 15.9 nM | 134 nM | 8.3 nM |
| CCS(=O)(=O)Nc1ccc(C(=O)Nc2ccc(-n3cncn3)c(N3CCC(F)(F)CC3)c2)c(N2CCC3(CC2)CC3)c1 [Example 28, N-(3-(4,4-difluoropiperidin-1-yl)-4-(1H-1,2,4-triazol-1-yl)phenyl)-4-(ethylsulfonamido)-2-(6-azaspiro[2.5]octan-6-yl)benz amide] | 12.4 nM | 59.1 nM | 8.4 nM |
| CCS(=O)(=O)Nc1ccc(C(=O)Nc2ccc(-c3ncn(C)n3)c(N3CC(F)(F)C3)c2)c(N2CCC3(CC2)CC3)c1 [Example 46, N-(3-(3,3-difluoroazetidin-1-y 1)-4-(1-methyl-1H-l,2,4-triazo 1-3-yl)phenyl)-4-(ethylsulfonamido)-2-(6-azaspiro[2.5]octan-6-yl)benzamide] | 3.7 nM | 148 nM | 0.15 nM |
| CCS(=O)(=O)Nc1ccc(C(=O)Nc2ccc(-c3ncccn3)c(N3CC(F)(F)C3)c2)c(N2CCC3(CC2)CC3)c1 [Example 18, N-(3-(3,3-difluoroazetidin-1-y 1)-4-(pyrimidin-2-yl)phenyl)-4-(ethylsulfonamido)-2-(6-azaspiro[2.5]octan-6-yl)benzamide] | 6.5 nM | 149 nM | 0.64 nM |
| CCS(=O)(=O)Nc1ccc(C(=O)Nc2ccc(-n3ncnn3)c(N3CCC(F)(F)CC3)c2)c(N2CCC3(CC2)CC3)c1 [Example 30, N-(3-(4,4-difluoropiperidin-1-yl)-4-(2H-tetrazol-2-yl)phenyl)-4-(ethylsulfonamido)-2-(6-azaspiro[2.5]octan-6-yl)benzamide] | 13.3 nM | 79 nM | 7.9 nM |
| CCS(=O)(=O)Nc1ccc(C(=O)Nc2ccc(-c3ccnnc3)c(N3CC(F)(F)C3)c2)c(N2CCC3(CC2)CC3)c1 [Example 19, N-(3-(3,3-difluoroazetidin-1-y 1)-4-(pyridazin-4-yl)phenyl)-4-(ethylsulfonamido)-2-(6-azaspiro[2.5]octan-6-yl)benzamide] | 6.3 nM | 98.6 nM | 0.44 nM |
| CCS(=O)(=O)Nc1ccc(C(=O)Nc2ccc(-c3ncn(C)n3)c(OC3CC(F)(F)C3)c2)c(N2CCC3(CC2)CC3)c1 [Example 45, N-(3-(3,3-difluorocyclobutoxy)-4-(1-methyl-1H-1,2,4-triazol-3-yl)phenyl)-4-(ethylsulfonamido)-2-(6-azaspiro[2.5]octan-6-yl)benzamide] | 2.5 nM | 103 nM | 6.2 nM |
| CCS(=O)(=O)Nc1ccc(C(=O)Nc2ccc(-c3ncccn3)c(N3CCC(F)(F)CC3)c2)c(N2CCC3(CC2)CC3)c1 [Example 14, N-(3-(4,4-difluoropiperidin-1-yl)-4-(pyrimidin-2-yl)phenyl)-4-(ethylsulfonamido)-2-(6-azaspiro[2.5]octan-6-yl)benzamide] | 5.9 nM | 120 nM | 10.1 nM |
| CCS(=O)(=O)Nc1ccc(C(=O)Nc2ccc(-c3ncn(C)n3)c(N3CCC(F)(F)CC3)c2)c(N2CCC3(CC2)CC3)c1 [Example 39, N-(3-(4,4-difluoropiperidin-1-yl)-4-(1-methyl-1H-1,2,4-triazol-3-yl)phenyl)-4-(ethylsulfon amido)-2-(6-azaspiro[2.5]octan-6-yl)benzamide] | 3.8 nM | 122 nM | 0.26 nM |
| CCS(=O)(=O)Nc1ccc(C(=O)Nc2ccc(-n3ccnc3)c(N3CCC(F)(F)CC3)c2)c(N2CCC3(CC2)CC3)c1 [Example 20, N-(3-(4,4-difluoropiperidin-1-yl)-4-(1H-imidazol-1-yl)pheny 1)-4-(ethylsulfonamido)-2-(6-azaspiro[2.5]octan-6-yl)benzamide] | 8.5 nM | 50.8 nM | 6 nM |
